Assay results published in ChEMBL document CHEMBL3797172, “Structure Property Relationships of Carboxylic Acid Isosteres” (J Med Chem, 2016).
Values after ≈ are worked out from the molar mass of the structure shown.

Key:
[1] = Effective permeability of compound assessed as membrane retention at pH 7.4 at 200 uM after 5 hrs by PAMPA relative to control; format: ADME; conditions: pH 7.4, 5 h
[2] = Dissociation constant, pKa of the compound at 100 uM by capillary electrophoresis; format: physicochemical; conditions: for pKa: 100 µM
[3] = Percentage unbound in human plasma at 5 uM after 6 hrs by equilibrium dialysis method; format: ADME, cell-free; conditions: for Fu: 6 h, 5 µM
[4] = octanol/water, pH 7.4, 1 h
physchem [5] = conditions: aqueous phosphate buffer, pH 7.4
[6] = Effective permeability of compound at pH 7.4 at 200 uM after 5 hrs by PAMPA; format: ADME; conditions: for Papp at 5 h, 200 µM: PAMPA, pH 7.4, read-out: Peff; for Peff: pampa, pH 7.4, 5 h, 200 µM, BLD = below limit of detection
[7] = buffer, pH 7.4, 24 h, 200 µM
physchem [8] = conditions: 1-octanol/aqueous buffer, pH 7.4
[9] = Apparent permeability of compound at pH 7.4 at 200 uM by PAMPA; format: physicochemical; conditions: pH 7.4, 200 µM, BLD = below limit of detection

SMILES | R% [1] [%] | Fu [3] [%] | logD [4] | solubility kinetic at 24 h, 200 µM (physchem [5]) [µM] | other results
CS(=O)(=O)NCCCc1ccccc1 | 8.1 | 37.27 | 1.42 | ≥ 200 | pKa [2]: > 12
O=C(CCc1ccccc1)NO | 0.03 | 29 | 0.71 | ≥ 200 | –
O=C1NC(=O)C(Cc2ccccc2)O1 (stereo unspecified) | -0.6 | 14 | -0.16 | ≥ 200 | –
O=P(O)(O)CCc1ccccc1 | -2.7 | 31 | – | 152 (≈ 28.4 µg/mL) | Papp at 5 h, 200 µM [6]: 0.094 ×10⁻⁶ cm/s
CC(=O)N(O)CCc1ccccc1 | 1.1 | 37 | 1.52 | ≥ 200 | –
O=C1NC(=O)C(Cc2ccccc2)S1 (stereo unspecified) | 5.5 | 3.4 | 1.07 | 200 (≈ 41.5 µg/mL) | –
Oc1c(F)ccc(Cc2ccccc2)c1F | -32 | 0.52 | 3.56 | 149 (≈ 32.7 µg/mL) | –
CC(=O)NOCCc1ccccc1 | -2.9 | 64 | 1.18 | 200 (≈ 35.8 µg/mL) | Papp at 5 h, 200 µM [6]: 4.6 ×10⁻⁶ cm/s
[O-][S+](Cc1ccccc1)c1ccccc1O (stereo unspecified) | 1.1 | 12 | 2.16 | ≥ 200 | –
Oc1ccccc1SCc1ccccc1 | – | – | > 3.78 | – | Kinetic_solubility [7]: ND(Unstable)
CS(=O)(=O)NC(=O)NCc1ccccc1 | 3 | 31 | -1.23 | 198 (≈ 45.1 µg/mL) | –
Oc1c(F)cc(Cc2ccccc2)cc1F | 49 | 0.26 | 3.34 | 109 (≈ 24 µg/mL) | –
Oc1cc(Cc2ccccc2)on1 | -11 | 0.1 | 0.46 | ≥ 200 | –
CONC(=O)CCc1ccccc1 | 5.3 | 68 | 1.16 | ≥ 200 | –
CC1=C(O)CC(Cc2ccccc2)C1=O (stereo unspecified) | -5.1 | – | – | > 200 | Papp at 5 h, 200 µM [6]: 0.26 ×10⁻⁶ cm/s; pKa at 100 µM [2]: 4.47; fraction unbound at 6 h, 5 µM [3]: 0.111; logD at 1 h (physchem [8]): -0.33
O=c1[nH]c(CCc2ccccc2)no1 | -4 | 1.1 | 0.32 | ≥ 200 | –
NS(=O)(=O)CCc1ccccc1 | 4.2 | 60.72 | 0.96 | ≥ 200 | –
O=C1C=C(O)CC1Cc1ccccc1 (stereo unspecified) | -3 | 7.96 | -0.7 | 195 (≈ 36.7 µg/mL) | –

SMILES | R% [1] [%] | Fu [3] [%] | logD [4] | solubility kinetic at 24 h, 200 µM (physchem [5]) [µM] | other results
O=c1[nH]c(CCc2ccccc2)ns1 | -0.7 | 1.17 | 1.66 | 200 (≈ 41.4 µg/mL) | –
O=S(=O)(Cc1ccccc1)c1ccccc1O | 7.2 | 1.59 | 1.76 | 197 (≈ 48.9 µg/mL) | –
O=c1c(O)c(Cc2ccccc2)c1=O | -13 | 8.19 | -0.84 | 166 (≈ 31.2 µg/mL) | Peff [6]: BLD; logPapp [9]: BLD; pKa [2]: < 2
O=C1CC(c2ccccc2)C=C1O (stereo unspecified) | -8.6 | – | 1.71 | 192 (≈ 33.5 µg/mL) | –
c1ccc(CCc2nnn[nH]2)cc1 | 4.7 | 1.12 | -0.25 | ≥ 200 | –
CS(=O)(=O)NC(=O)CCc1ccccc1 | 1.4 | 12.8 | – | 200 (≈ 45.4 µg/mL) | –
CN(C)S(=O)(=O)NC(=O)CCc1ccccc1 | 2.2 | 8.1 | 0.17 | 199 (≈ 51 µg/mL) | pKa [2]: 5.86
O=[PH](O)CCc1ccccc1 | -2.1 | 8.86 | – | 128 (≈ 21.7 µg/mL) | –
O=C1CCC(Cc2ccccc2)=C1O | 1.5 | 16 | 1.85 | 195 (≈ 36.7 µg/mL) | –
O=S([O-])CCc1ccccc1.[Na+] | -6.8 | 5 | -1.3 | ≥ 200 | Peff [6]: BLD; logPapp [9]: BLD
S=c1[nH]c(CCc2ccccc2)no1 | -3.4 | 0.65 | -0.25 | ≥ 200 | –
O=C1CC(=O)C(Cc2ccccc2)N1 (stereo unspecified) | 1.3 | – | -0.35 | ≥ 200 | Papp at 5 h, 200 µM [6]: 2.5 ×10⁻⁶ cm/s
O=S(=O)([O-])CCc1ccccc1.[Na+] | -6.1 | 0.31 | -1.45 | ≥ 200 | pKa [2]: < 2
O=c1c(O)c(NCc2ccccc2)c1=O | -6.6 | 6.45 | – | ≥ 200 | pKa [2]: < 2
O=C1CCC(O)=C1Cc1ccccc1 | -8.8 | 14.3 | -0.6 | 199 (≈ 37.5 µg/mL) | –
O=C(O)CCc1ccccc1 | -7 | 9.5 | – | 111 (≈ 16.6 µg/mL) | –
CC(=O)NC(=O)NCc1ccccc1 | -3.3 | 77 | 1.42 | ≥ 200 | pKa [2]: > 12
